In patent US20070276011A1, “Plasminogen Activator Inhibitor-1 Inhibitor” (priority 2003, published 2007):

Target: recombinant human PAI-1 (Homo sapiens, UniProt P05121)
Test: PAI-1 inhibitory activity, Test Method A (tPA fluorogenic substrate, Tris buffer pH8.0, 37 C)
Format: biochemical
Details: 25 μM test compound; Test Method A
Procedure: To this solution, 50 μL solution of 400 μM fluogenic substrate for tPA (Pyr-Gly-Arg-MCA, Peptide Institute, Inc.) adjusted with the same buffer was added, and reacted for 30 minutes at 37° C. The reaction was stopped by adding 50 μL of 2% acetic acid. Fluorescence was measured at the excitation wavelength=360 nm, emission wavelength=460 or 465 nm using a microplate reader (SPECTRAFLUOR or GENios) by TECAN. The fluorescence intensities in the presence of the PAI-1 as the control (DMSO) or in the absence of the PAI-1 (tPA alone) were taken as 100% and 0% of PAI-1 activities, respectively, and inhibitory ratios of PAI-1 activities in the presence of the test compound were obtained.
<Composition of the Tris Buffer (pH8.0)>

Sequence of recombinant human PAI-1 (P05121 24-402): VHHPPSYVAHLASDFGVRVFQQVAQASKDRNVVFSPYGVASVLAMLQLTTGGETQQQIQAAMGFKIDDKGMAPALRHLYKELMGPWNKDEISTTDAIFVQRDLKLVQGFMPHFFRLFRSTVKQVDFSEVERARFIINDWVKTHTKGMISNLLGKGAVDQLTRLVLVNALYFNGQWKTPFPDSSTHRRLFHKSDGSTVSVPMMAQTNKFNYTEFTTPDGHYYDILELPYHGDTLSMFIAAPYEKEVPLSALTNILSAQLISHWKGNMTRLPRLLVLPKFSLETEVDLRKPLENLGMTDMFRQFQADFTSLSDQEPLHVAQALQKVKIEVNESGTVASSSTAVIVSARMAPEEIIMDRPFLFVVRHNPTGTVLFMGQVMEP

Structure (SMILES)	Inhibitory Ratio at 25 μM (%)
O=C1SC(=Cc2ccc([O-])c([O-])c2)C(=O)N1Cc1ccc(Cl)cc1Cl.[Na+].[Na+] [compound 339]	>99
CC(C)C1=NN(c2cc(Cl)cc(Cl)c2)C(=O)C1=Cc1cc(C=Cc2ccccc2)ccc1O [compound 525]	>99
CCOC1=NN(c2ccc([N+](=O)[O-])cc2)C(=O)C1=Cc1cc(Br)ccc1O [compound 513]	72
O=C1C(=Cc2cc(C=Cc3ccccc3)ccc2O)C(c2ccc(O)cc2)=NN1c1ccc(Cl)cc1 [compound 530]	>99
COc1c(O)cccc1C=C1SC(=O)N(Cc2ccc(Cl)c(Cl)c2)C1=O [compound 329]	34
O=C1C(=Cc2ccc(O)c(O)c2)SC(=S)N1Cc1ccc(C(F)(F)F)cc1 [compound 307, 5-(3,4-Dihydroxybenzylidene)-3-[4-(trifluoromethyl)benzyl]rhodanine]	>99
O=C(Nc1ccccc1)c1ccc(CN2C(=O)SC(=Cc3ccc(O)c(O)c3)C2=O)cc1 [compound 301, 5-(3,4-Dihydroxybenzylidene)-3-[4-(phenylcarbamoyl)benzyl]thiazolidine-2,4-dione]	>99
COc1cc(C=C2SC(=O)N(Cc3ccc(Cl)c(Cl)c3)C2=O)ccc1Cl [compound 327, 5-(3-methoxy-4-chlorobenzylidene)-3-(3,4-dichlorobenzyl)-thiazolidine-2,4-dione]	61
CC(C)C1=NN(c2cc(Cl)cc(Cl)c2)C(=O)C1=Cc1cc(O)c(O)cc1Br [compound 556, 4-(2-Bromo-4,5-dihydroxybenzylidene)-1-(3,5-dichlorophenyl)-3-isopropyl-2-pyrazolin-5-one]	>99
COc1ccc(NC(=O)c2cc(C=C3SC(=O)N(Cc4cc(C)cc(C)c4)C3=O)ccc2O)cc1OC [compound 393, 5-[4-Hydroxy-3-(3,4-dimethoxyphenylcarbamoyl)benzylidene]-3-(3,5-dimethylbenzyl)thiazolidine-2,4-dione]	>99
COc1ccc(C)cc1NC(=O)c1cc(C=C2SC(=O)N(Cc3ccc(Cl)c(Cl)c3)C2=O)ccc1O [compound 452, 5-[4-hydroxy-3-(2-methoxy-5-methylphenylcarbamoyl)-benzylidene]-3-(3,4-dichlorobenzyl)thiazolidine-2,4-dione]	>99
Cc1cc(C)cc(CN2C(=O)SC(=Cc3ccc(O)c(C(=O)Nc4ccc(O)c(O)c4)c3)C2=O)c1 [compound 394]	>99
O=C1SC(=Cc2ccc(Oc3ccccc3)cc2)C(=O)N1Cc1cc(O)c(O)c(O)c1 [compound 308, 5-(4-Phenoxybenzylidene)-3-(3,4,5-trihydroxybenzyl)thiazolidine-2,4-dione]	98
O=C(Cc1cccc(Oc2ccccc2)c1)Nc1cccc(CN2C(=O)SC(=Cc3ccc(O)c(O)c3)C2=O)c1 [compound 321]	>99
COCC1=NN(c2cc(Cl)cc(Cl)c2)C(=O)C1=Cc1cc(C=Cc2ccccc2)ccc1O [compound 524]	>99
O=C(CCc1ccccc1)Nc1ccc(CN2C(=O)SC(=Cc3ccc(O)c(O)c3)C2=O)cc1 [compound 315]	39

Structure (SMILES)	Inhibitory Ratio at 25 μM (%)
O=C(Nc1cc(O)cc(C(F)(F)F)c1)c1cc(C=C2SC(=O)N(Cc3ccc(Cl)c(Cl)c3)C2=O)ccc1O [compound 459]	>99
O=C1SC(=Cc2ccc3c(c2)OCO3)C(=O)N1Cc1ccc(Cl)cc1Cl [compound 336]	61
O=C1C(=Cc2cc(Br)ccc2O)C(c2ccc(O)cc2)=NN1c1ccc(Cl)cc1 [compound 520, 4-(2-Hydroxy-5-bromobenzylidene)-1-(4-chlorophenyl)-3-(4-hydroxyphenyl)-2-pyrazolin-5-one]	>99
O=C(O)c1c(O)cc(C=C2SC(=O)N(Cc3ccc(Cl)c(Cl)c3)C2=O)cc1O [compound 446]	>99
O=C(O)c1cc(C=C2SC(=O)N(Cc3ccc(Cl)c(Cl)c3)C2=O)ccc1O [compound 358, 5-(3-Carboxy-4-hydroxybenzylidene)-3-(3,4-dichlorobenzyl)thiazolidine-2,4-dione]	95
O=C(Nc1ccc(O)c(O)c1)c1cc(C=C2SC(=O)N(Cc3cc(C(F)(F)F)ccc3C(F)(F)F)C2=O)ccc1O [compound 374]	>99
COCC1=NN(c2cc(Cl)cc(Cl)c2)C(=O)C1=Cc1cc(Br)ccc1O [compound 521, 4-(2-Hydroxy-5-bromobenzylidene)-1-(3,5-dichlorophenyl)-3-methoxymethyl-2-pyrazolin-5-one]	>99
O=C1C(=Cc2cc(Br)ccc2O)C(c2ccc(O)cc2)=NN1c1cc(Cl)cc(Cl)c1 [compound 510]	86
CCOC1=NN(c2ccc([N+](=O)[O-])cc2)C(=O)C1=Cc1c(O)ccc2ccccc12 [compound 546]	96
O=C(OCc1ccccc1)c1cc(C=C2SC(=O)N(Cc3cc(C(F)(F)F)ccc3C(F)(F)F)C2=O)ccc1O [compound 363, 5-(3-Benzyloxycarbonyl-4-hydroxybenzylidene)-3-[2,5-bis(trifluoromethyl)benzyl]thiazolidine-2,4-dione]	84
O=C(Nc1ccc2c(c1)OCO2)c1cc(C=C2SC(=O)N(Cc3ccc(Cl)c(Cl)c3)C2=O)cc(O)c1O [compound 474]	82
COc1cc(C=C2SC(=O)N(Cc3ccc(Cl)c(Cl)c3)C2=O)cc(C(=O)O)c1O [compound 345, 5-(3-Methoxy-4-hydroxy-5-carboxybenzlidene)-3-(3,4-dichlorobenzyl)thiazolidine-2,4-dione]	89
CC(C)C1=NN(c2cc(Cl)cc(Cl)c2)C(=O)C1=Cc1c[nH]cn1 [compound 508]	26
COc1ccc(COC(=O)c2cc(C=C3SC(=O)N(Cc4ccc(C(F)(F)F)cc4)C3=O)ccc2O)cc1 [compound 387, 5-[4-hydroxy-3-(4-methoxybenzyloxycarbonyl)benzylidene]-3-[4-(trifluoromethyl)benzyl]thiazolidine-2,4-dione]	74
CC(C)C1=NN(Cc2ccc(Cl)c(Cl)c2)C(=O)C1=Cc1cc(O)c(O)cc1O.N=C(N)NCCC[C@H](N)C(=O)O.N=C(N)NCCC[C@H](N)C(=O)O [compound 554, di(L-(+)-arginine) salt of 4-(2,4,5-trihydroxybenzylidene)-1-(3,4-dichlorobenzyl)-3-isopropyl-2-pyrazolin-5-one]	>99

Same assay, conditions: 50% inhibitory concentration of PAI-1 activity, according to the aforementioned method

Structure (SMILES)	IC50 [nM]
O=C1C(=Cc2ccc(O)c(O)c2)SC(=S)N1Cc1ccc(C(F)(F)F)cc1 [compound 307, 5-(3,4-Dihydroxybenzylidene)-3-[4-(trifluoromethyl)benzyl]rhodanine]	580

Same assay, conditions: test compound 25 μM; Test Method A

Structure (SMILES)	Inhibitory Ratio at 25 μM (%)
CCOC1=NN(c2ccc([N+](=O)[O-])cc2)C(=O)C1=Cc1cc(O)c(O)c(O)c1 [compound 132]	>99
CC(C)C1=NN(c2ccc(Cl)c(Cl)c2)C(=O)C1=Cc1cc(O)c(O)c(O)c1 [compound 134, 4-(3,4,5-Trihydroxybenzylidene)-1-(3,4-dichlorophenyl)-3-isopropyl-2-pyrazolin-5-one]	>99
COc1cc(C=C2C(=O)N(c3ccc(Cl)c(C(=O)O)c3)N=C2C)ccc1OCc1ccccc1 [compound 170]	>99
COc1ccc(OC)c(N2C(=O)C(=Cc3ccc(O)c(O)c3)SC2=S)c1 [compound 75, 5-(3,4-Dihydroxybenzylidene)-3-(2,5-dimethoxyphenyl)rhodanine]	74
O=C1SC(=Cc2ccc(O)c(O)c2)C(=O)N1Cc1cccc(Cl)c1 [compound 31]	>99
COC(=O)c1cccc(N2N=C(C(C)C)C(=Cc3ccc(Br)o3)C2=O)c1 [compound 205]	35
O=C(O)c1cccc(-c2ccc(C=C3SC(=S)N(c4cccc(F)c4)C3=O)o2)c1 [compound 62]	36
CC1=NN(c2ccc(Cl)cc2)C(=O)C1=Cc1cc(O)c(O)cc1O [compound 224]	69
O=C1SC(=Cc2ccc(Cl)c(Cl)c2)C(=O)N1Cc1cc(O)c(O)c(O)c1 [compound 78, 5-(3,4-Dichlorobenzylidene)-3-(3,4,5-trihydroxybenzyl)thiazolidine-2,4-dione]	90
CC1=NN(c2cccc(C(=O)O)c2)C(=O)C1=Cc1ccc(-c2cccc([N+](=O)[O-])c2)o1 [compound 193]	32
CC1=NN(c2ccc([N+](=O)[O-])cc2)C(=O)C1=Cc1cc(O)c(O)c(O)c1 [compound 135]	94
Cc1cccc(N2N=C(C(C)C)C(=Cc3ccc(O)c(O)c3)C2=O)c1 [compound 125, 4-(3,4-Dihydroxybenzylidene)-1-(3-methylphenyl)-3-isopropyl-2-pyrazolin-5-one]	38
CC(C)(C)C1=NN(c2cc(Cl)cc(Cl)c2)C(=O)C1=Cc1cc(O)c(O)c(O)c1 [compound 139]	>99
CC(C)(C)C1=NN(c2cccc(C(=O)O)c2)C(=O)C1=Cc1ccc(Cl)c(Cl)c1 [compound 198]	40
COc1cc(OC)c(OC)cc1CN1C(=O)SC(=Cc2cccc(O)c2O)C1=O [compound 15, 5-(2,3-Dihydroxybenzylidene)-3-(2,4,5-trimethoxybenzyl)thiazolidine-2,4-dione]	93
O=C1SC(=Cc2cc([N+](=O)[O-])ccc2O)C(=O)N1Cc1ccc(Cl)c(Cl)c1 [compound 55]	77
O=C1SC(=Cc2ccc(O)c(O)c2)C(=O)N1Cc1cccc(Br)c1 [compound 35]	>99
